Molecules are shown by their SMILES. pEC50: −log10 of the molar value.

Results on 36 compounds are retold here after patent US20260042769A1, “TRIARYL AGONISTS OF ALPHA-2 ADRENERGIC RECEPTORS” (ALCEPTOR THERAPEUTICS, INC., priority 2023, published 2026).

This assay concerns the target T1, human ADRA2B receptor (Homo sapiens, UniProt P18089).
T1 construct: expressed in transfected cells
T1 sequence (P18089 1-450): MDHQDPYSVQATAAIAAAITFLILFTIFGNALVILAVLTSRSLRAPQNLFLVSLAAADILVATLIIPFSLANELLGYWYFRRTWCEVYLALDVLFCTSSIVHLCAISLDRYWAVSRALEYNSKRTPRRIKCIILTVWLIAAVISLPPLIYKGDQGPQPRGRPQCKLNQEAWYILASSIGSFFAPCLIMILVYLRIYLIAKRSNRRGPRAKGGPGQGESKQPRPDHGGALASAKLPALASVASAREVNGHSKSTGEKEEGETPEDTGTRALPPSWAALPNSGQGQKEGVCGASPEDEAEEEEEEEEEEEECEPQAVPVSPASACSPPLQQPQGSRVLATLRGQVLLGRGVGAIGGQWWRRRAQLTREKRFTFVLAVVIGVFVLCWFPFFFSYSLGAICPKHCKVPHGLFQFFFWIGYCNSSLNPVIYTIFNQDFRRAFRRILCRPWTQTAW
In words: GTPγS agonist assay, ADRA2B receptor. As to conditions: read-out: GTPase - Human Alpha2B EC50. It counts as biochemical. The method, then: GTP ? S Agonist Assays (ADRA2A, ADRA2B, and ADRA2C Receptors)
Membranes were prepared for GTP ? S binding assays from CHO-K1 cells stably expressing human ADRA2A, ADRA2B, or ADRA2C receptor. Briefly, cells were grown in 5-layer cell culture flasks. Cells were washed with 50 mL of PBS and then dissociated with 0.05% trypsin. Dissociated cells were then collected by centrifugation at 650×g for 8 min at 4° C. Pellets were washed again in PBS by centrifugation and resuspended in 30 mL of 20 mM HEPES, 10 mM EDTA, pH 7.4. After sitting on ice for 30 min, membranes were collected by centrifugation at 50000×g for 15 min at 4° C., resuspended in 30 mL of 20 mM HEPES, 0.1 mM EDTA, pH 7.4 and collected again by centrifugation. Pellets were then washed twice by centrifugation in 30 mL of 20 mM HEPES, pH 7.4, and stored at −80° C. until the day of the assay. On the day of the assay, pellets were thawed on ice and resuspended in 1 mL of 20 mM HEPES, pH 7.4, 10 mM MgCl2, 100 mM NaCl using dounce homogenization. Membrane protein concentration was determined by BCA protein assay (Promega, Madison, WI) according to Promega guidelines.
On the day of the assay, serial dilutions of test compounds were brought up in assay buffer (20 mM HEPES, 10 mM MgCl2, 200 mM NaCl) at 10× final assay concentration. 50 μL/well of membrane homogenates (containing 5 μg of membrane protein for ADRA2A, ADRA2B, or 7.5 μg for ADRA2C) were prepared in assay buffer supplemented with GDP at 2× final assay concentration (5 μM GDP) and dispensed into 96 well polypropylene, U-bottom Greiner plates. Then, 10 μL of compounds were added to assay plates and incubated for 10 min at room temperature. […] The binding reaction was incubated for 1 h at 37° C. Membranes in assay reactions were then transferred to GF/C filter plates (UniFilter, Perkin Elmer) and washed three times using a FilterMate Harvester (Perkin Elmer) with cold assay buffer containing no GDP. Filter plates were then dried at 40° C. overnight followed by the addition of 30 μL/well of Beta Plate Scintillation liquid. Plates were top and bottom sealed before being read on TopCount scintillation counter (Perkin Elmer, Waltham, MA).
A word on the pEC50: it is the negative decadic logarithm of the EC50, by convention in mol/L. As for `Cc1cccc(C(Cc2cccnn2)c2c[nH]cn2)c1` (stereo not drawn) [Compound 228, 3-[2-(4-imidazolyl)-2-(m-tolyl)ethyl]pyridazine], the pEC50 was less than 6.30.
As for `FC(F)(F)c1ccc(C(Cc2cccnn2)c2c[nH]cn2)cc1` (stereo not drawn) [Compound 223, 3-{2-(4-imidazolyl)-2-[p-(trifluoromethyl)phenyl]ethyl}pyridazine], the figure is less than 6.30; as for `Cc1cccc(C(Cc2cocn2)c2c[nH]cn2)c1C` (stereo not drawn) [Compound 126, 4-[2-(4-imidazolyl)-2-(2,3-xylyl)ethyl]-1,3-oxazole], greater than 8.00; as for `Cc1cccc(C(Cc2ncc(F)cn2)c2c[nH]cn2)c1C` (stereo not drawn) [Compound 112, 5-fluoro-2-[2-(4-imidazolyl)-2-(2,3-xylyl)ethyl] pyrimidine], 6.30 to 7.30.
For `Cc1cccc(C(Cc2ccncn2)c2cnc[nH]2)c1C` (stereo not drawn) [Compound 92, 4-[2-(2,3-dimethylphenyl)-2-(1H-imidazol-4-yl)ethyl] pyrimidine] the value was 7.30 to 8.00; for `FC(F)(F)Oc1ccccc1[C@H](Cc1ccccn1)c1cnc[nH]1` [Compound 29, 2-[(2S)-2-(1H-imidazol-4-yl)-2-[2-(trifluoromethoxy)phenyl]ethyl] pyridine], less than 6.30; for `c1cc2c(c([C@@H](Cc3cnn(C4CC4)c3)c3c[nH]cn3)c1)OCC2` [Compound 289], less than 6.30.
As for `COc1cccc(C[C@@H](c2cnc[nH]2)c2cccc(OC)c2C)n1` [Compound 27, 2-[(2R)-2-(1H-imidazol-4-yl)-2-(3-methoxy-2-methylphenyl)ethyl]-6-methoxypyridine], the figure is greater than 8.00.
For the compound `COc1cccc(C[C@@H](c2c[nH]cn2)c2cccc(Cl)c2OC)n1` [Compound 8, 2-[(2R)-2-(3-chloro-2-methoxyphenyl)-2-(1H-imidazol-4-yl)ethyl]-6-methoxypyridine], the pEC50 is less than 6.30.
`Cc1cncc(C[C@@H](c2cnc[nH]2)c2cccc(C)c2C)n1` [Compound 83, 2-[(2R)-2-(2,3-dimethylphenyl)-2-(1H-imidazol-4-yl)ethyl]-6-methylpyrazine]: the negative logarithm of the EC50 (pEC50) is greater than 8.00.
Regarding `COc1cccc(C[C@@H](c2c[nH]cn2)c2cccc(C)c2F)n1` (single isomer, unassigned) [Compound 6], the pEC50 is 6.30 to 7.30.
Consider `Cc1cccc([C@H](Cc2ccccn2)c2cnc[nH]2)c1C` [Compound 51, 2-[(2S)-2-(2,3-dimethylphenyl)-2-(1H-imidazol-4-yl)ethyl] pyridine], for which the pEC50 was 6.30 to 7.30.
As for `COc1nccc(C[C@H](c2c[nH]cn2)c2cccc(C)c2C)n1` [Compound 53, 4-[(2S)-2-(2,3-dimethylphenyl)-2-(1H-imidazol-4-yl)ethyl]-2-methoxy-pyrimidine], the figure is greater than 8.00; as for `Cc1cncc(CC(c2cnc[nH]2)c2cccc(C)c2C)n1` (stereo not drawn) [Compound 88, 2-[2-(2,3-dimethylphenyl)-2-(1H-imidazol-4-yl)ethyl]-6-methylpyrazine], 7.30 to 8.00; as for `COc1ccccc1[C@@H](Cc1ccccn1)c1cnc[nH]1` [Compound 32, 2-[(2R)-2-(1H-imidazol-4-yl)-2-(2-methoxyphenyl)ethyl]pyridine], less than 6.30.
As for `Cc1ccnc(C[C@@H](c2cnc[nH]2)c2cccc(C)c2C)n1` [Compound 79, 2-[(2R)-2-(2,3-dimethylphenyl)-2-(1H-imidazol-4-yl)ethyl]-4-methylpyrimidine], the figure is 6.30 to 7.30.
For `Cc1cccc([C@@H](Cc2ccon2)c2c[nH]cn2)c1C` [Compound 100, 3-[(R)-2-(4-imidazolyl)-2-(2,3-xylyl)ethyl] isoxazole] the value was 7.30 to 8.00.
As to `CCOc1c(F)cccc1C(Cc1cccnn1)c1c[nH]cn1` (stereo not drawn) [Compound 231, 3-[2-(2-ethoxy-3-fluorophenyl)-2-(4-imidazolyl)ethyl] pyridazine], the pEC50 is less than 6.30.
For `Cc1c(Cl)cccc1[C@@H](Cc1cccnc1)c1cnc[nH]1` [Compound 63, 3-[(2R)-2-(3-chloro-2-methylphenyl)-2-(1H-imidazol-4-yl)ethyl]pyridine] the value was greater than 8.00; for `Cc1cccc(C(Cc2ccnnc2)c2cnc[nH]2)c1C` (stereo not drawn) [Compound 85, 4-[2-(2,3-dimethylphenyl)-2-(1H-imidazol-4-yl)ethyl] pyridazine], 7.30 to 8.00; for `COc1cccc(C(Cc2cccnn2)c2c[nH]cn2)c1F` (stereo not drawn) [Compound 360, 3-[2-(2-fluoro-3-methoxyphenyl)-2-(4-imidazolyl)ethyl]pyridazine], less than 6.30.
For `c1cc2c(c([C@H](Cc3cnn(C4CC4)c3)c3c[nH]cn3)c1)OCC2` [Compound 290, 4-[(S)-2-(2,3-dihydro-1-benzofuran-7-yl)-2-(4-imidazolyl)ethyl]-1-] the value was greater than 8.00; for `COc1cccc(C[C@H](c2c[nH]cn2)c2cccc(Cl)c2Cl)n1` [Compound 99, 4-[(S)-1-(2,3-dichlorophenyl)-2-(6-methoxy-2-pyridyl)ethyl] imidazole], less than 6.30; for `COc1ccc(CC(c2c[nH]cn2)c2cccc(C)c2C)nn1` (stereo not drawn) [Compound 133, 3-[2-(4-imidazolyl)-2-(2,3-xylyl)ethyl]-6-methoxy-pyridazine], 7.30 to 8.00.
For `COc1ncc(C[C@H](c2c[nH]cn2)c2cccc(Cl)c2C)cn1` [Compound 109, 5-[(S)-2-(3-chloro-2-tolyl)-2-(4-imidazolyl)ethyl]-2-methoxy-pyrimidine] the value was greater than 8.00; for `COc1nccc(CC(c2c[nH]cn2)c2cccc3ncoc23)n1` (stereo not drawn) [Compound 174, 7-[1-(4-imidazolyl)-2-(2-methoxy-4-pyrimidinyl)ethyl]-1,3-benzoxazole], 6.30 to 7.30; for `COc1ncc(C[C@@H](c2c[nH]cn2)c2cccc(Cl)c2C)cn1` [Compound 108, 5-[(R)-2-(3-chloro-2-tolyl)-2-(4-imidazolyl)ethyl]-2-methoxy-pyrimidine], 6.30 to 7.30.
For `COc1cccc(C[C@@H](c2c[nH]cn2)c2cccc(OC)c2Cl)n1` [Compound 110, 4-[(R)-1-(2-chloro-3-methoxyphenyl)-2-(6-methoxy-2-pyridyl)ethyl] imidazole], the pEC50 was greater than 8.00.
For `c1ccc(C[C@H](c2cnc[nH]2)c2cccc3c2OCC3)nc1` [Compound 43, 2-[(2S)-2-(2,3-dihydro-1-benzofuran-7-yl)-2-(1H-imidazol-4-yl)ethyl] pyridine] the value was less than 6.30; for `Cc1cc(C[C@H](c2c[nH]cn2)c2cccc(C)c2C)no1` [Compound 136, 3-[(S)-2-(4-imidazolyl)-2-(2,3-xylyl)ethyl]-5-methyl-isoxazole], greater than 8.00.
As for `Cc1cccc(C(Cc2ccncc2)c2cnc[nH]2)c1C` (stereo not drawn) [Compound 97, 4-[2-(2,3-dimethylphenyl)-2-(1H-imidazol-5-yl)ethyl] pyridine], the figure is greater than 8.00; as for `COc1nccc(CC(c2c[nH]cn2)c2cccc3c2cnn3C)n1` (stereo not drawn) [Compound 194, 4-[1-(4-imidazolyl)-2-(2-methoxy-4-pyrimidinyl)ethyl]-1-methyl-1H-indazole], 7.30 to 8.00; as for `Cc1cccc([C@@H](Cc2ccn(C)n2)c2c[nH]cn2)c1C` [Compound 105, 3-[(R)-2-(4-imidazolyl)-2-(2,3-xylyl)ethyl]-1-methylpyrazole], less than 6.30.
With `COc1nccc(CC(c2c[nH]cn2)c2cccc3c2ccn3C)n1` (stereo not drawn) [Compound 193, 4-[2-(4-imidazolyl)-2-(1-methyl-4-indolyl)ethyl]-2-methoxypyrimidine], the pEC50 is greater than 8.00.
Consider `COc1cccc(C[C@H](c2c[nH]cn2)c2cccc(Cl)c2OC)n1` [Compound 7, 2-[(2S)-2-(3-chloro-2-methoxyphenyl)-2-(1H-imidazol-4-yl)ethyl]-6-methoxypyridine], for which the pEC50 was 7.30 to 8.00.
Take `COc1cccc(C[C@@H](c2cnc[nH]2)c2cccc3c2OCC3)n1` [Compound 17, 2-[(2R)-2-(2,3-dihydro-1-benzofuran-7-yl)-2-(1H-imidazol-4-yl)ethyl]-6-methoxypyridine]: the pEC50 was 6.30 to 7.30.
